Measurements as given in ChEMBL document CHEMBL1147972, “1,3-disubstituted 4-aminopiperidines as useful tools in the optimization of the 2-aminobenzo[a]quinolizine dipeptidyl peptidase IV inhibitors” (Bioorg Med Chem Lett, 2007).

Assays:
Rattus norvegicus = assay: Reduction in glucose level in fa/fa rat after oral glucose tolerance test at 0.3 mg/kg administered 2 hrs before glucose challenge; assay type: functional; set-up: scale not given: the % may be the effect or the level left
[1] = Solubility of the compound; assay type: physicochemical
[2] = Distribution coefficient, log D at pH 7.4; assay type: physicochemical; details: octanol/water
[3] = Permeability coefficient across PAMPA; assay type: ADME; details: read-out: permeability
Cytochrome P450 2C9 = Cytochrome P450 2C9 (Homo sapiens, UniProt P11712); assay: Inhibition of CYP2C9; assay type: ADME
Liver microsomes [4] = assay: Clearance in human liver microsome; assay type: ADME
Liver microsomes [5] = assay: Clearance in rat liver microsome; assay type: ADME
Cytochrome P450 2D6 = Cytochrome P450 2D6 (Homo sapiens, UniProt P10635); assay: Inhibition of CYP2D6; assay type: ADME
Cytochrome P450 3A4 = Cytochrome P450 3A4 (Homo sapiens, UniProt P08684); assay: Inhibition of CYP3A4; assay type: ADME
Sequence of Cytochrome P450 3A4 (P08684 whole entry): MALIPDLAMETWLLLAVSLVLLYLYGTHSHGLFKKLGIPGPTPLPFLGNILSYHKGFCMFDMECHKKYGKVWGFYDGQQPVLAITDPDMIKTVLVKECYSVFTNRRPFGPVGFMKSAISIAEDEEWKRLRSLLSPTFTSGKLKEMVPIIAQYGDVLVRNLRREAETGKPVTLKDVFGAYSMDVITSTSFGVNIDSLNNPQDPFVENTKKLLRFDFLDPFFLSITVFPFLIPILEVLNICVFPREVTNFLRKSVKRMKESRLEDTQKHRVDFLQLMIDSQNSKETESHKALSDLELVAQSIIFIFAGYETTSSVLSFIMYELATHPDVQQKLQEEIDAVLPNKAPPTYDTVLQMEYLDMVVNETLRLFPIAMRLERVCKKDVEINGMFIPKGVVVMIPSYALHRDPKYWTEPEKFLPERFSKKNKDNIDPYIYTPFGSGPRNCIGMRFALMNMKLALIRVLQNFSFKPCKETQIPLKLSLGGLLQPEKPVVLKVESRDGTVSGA

Sequence of Cytochrome P450 2D6 (P10635 whole entry): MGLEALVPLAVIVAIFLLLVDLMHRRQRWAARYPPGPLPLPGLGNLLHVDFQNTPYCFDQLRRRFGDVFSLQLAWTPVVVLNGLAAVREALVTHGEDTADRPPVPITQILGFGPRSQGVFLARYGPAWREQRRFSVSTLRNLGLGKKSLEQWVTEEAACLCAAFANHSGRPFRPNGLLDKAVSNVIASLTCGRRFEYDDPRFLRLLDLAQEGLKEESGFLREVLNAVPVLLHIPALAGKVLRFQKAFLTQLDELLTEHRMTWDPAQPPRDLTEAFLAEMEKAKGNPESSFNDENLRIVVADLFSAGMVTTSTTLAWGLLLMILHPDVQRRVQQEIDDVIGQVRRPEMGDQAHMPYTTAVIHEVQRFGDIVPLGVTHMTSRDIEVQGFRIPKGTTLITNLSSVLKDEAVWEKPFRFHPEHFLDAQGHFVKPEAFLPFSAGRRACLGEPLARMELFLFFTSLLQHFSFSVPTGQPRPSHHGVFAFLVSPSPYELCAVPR
Sequence of Cytochrome P450 2C9 (P11712 whole entry): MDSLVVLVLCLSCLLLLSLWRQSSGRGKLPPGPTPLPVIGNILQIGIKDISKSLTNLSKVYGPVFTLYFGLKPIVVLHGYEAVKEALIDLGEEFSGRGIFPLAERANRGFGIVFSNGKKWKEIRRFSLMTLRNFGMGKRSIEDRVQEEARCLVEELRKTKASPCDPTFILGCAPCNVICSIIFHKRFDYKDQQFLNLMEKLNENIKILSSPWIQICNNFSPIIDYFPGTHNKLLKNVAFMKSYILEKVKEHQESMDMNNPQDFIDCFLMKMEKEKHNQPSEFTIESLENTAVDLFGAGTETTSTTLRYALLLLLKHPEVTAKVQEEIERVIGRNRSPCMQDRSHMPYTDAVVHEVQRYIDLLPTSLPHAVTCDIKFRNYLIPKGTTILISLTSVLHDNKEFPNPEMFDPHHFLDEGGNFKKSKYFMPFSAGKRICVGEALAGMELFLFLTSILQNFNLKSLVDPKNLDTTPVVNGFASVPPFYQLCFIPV

| Solubility [1] | logD [2] | Papp [3] | IC50 (Cytochrome P450 2C9) | clearance (Liver microsomes [4]) | clearance (Liver microsomes [5]) | IC50 (Cytochrome P450 2D6) | IC50 (Cytochrome P450 3A4) | SMILES | Activity (Rattus norvegicus) |
| --- | --- | --- | --- | --- | --- | --- | --- | --- | --- |
| > 414 µg/mL | 0.8 | 2.5 ×10⁻⁶ cm/s | > 50 µM | 0 µL/min/mg | 4.7 µL/min/mg | > 50 µM | > 50 µM | CCCC[C@H]1CN2CCc3cc(OC)c(OC)cc3[C@@H]2C[C@@H]1N | -16% |
| > 469 µg/mL | 1.3 | 3.4 ×10⁻⁶ cm/s | 15 µM | 3 µL/min/mg | 1 µL/min/mg | 11 µM | > 50 µM | COc1cc2c(cc1OC)[C@@H]1C[C@H](N)[C@@H](c3cccc(C)c3)CN1CC2 | -41% |
